Measurements taken from patent publication US20190086390A1, “INDIRECT ASSESSMENT OF INSULIN RELEASE IN A CELL” (Board of Supervisors of Louisiana State University and …, priority 2016, published 2019).
“Also recorded” adds a separate entry of the source.

Legend:
Format in all cases: cell-based, rat
832/13 cells [1] = experiment: MTS dye reduction assay; details: 1 ng/ml IL-1β, 18 h
Experimental: (§1) Nitrite in the cell culture media was measured as an index of NO production using the Griess assay kit (Promega, Madison, Wis.), whereas cellular reduction of the 3-(4,5-dimethylthiazol-2-yl)-5-(3-carboxymethoxyphenyl)-2-(4-sulfophe-nyl)-2H-tetrazohum, inner salt (MTS) dye was determined using the MTS 1 solution kit (Promega) according to the manufacturer's protocol.

Pdx-1 = Pdx-1 protein abundance, immunoblot; details: 832/13 cells, IL-1β 4 h
Experimental: Cell lysis and extraction of cytoplasmic and nuclear protein fractions was performed using the NE-PER kit (Thermo Fisher Scientific) according to the manufacturer's directions. The protein concentration of the lysate was determined using the bicinchoninic acid assay (Thermo Fisher Scientific), using BSA as the standard. SDS-PAGE, transfer to polyvi-nylidene difluoride membranes, membrane blocking before antibody incubation, and downstream subsequent detection using a ChemiDoc imaging system (Bio-Rad) have been described previously (16). Antibodies detecting β-actin or tubulin were used as loading controls. Antibodies used were from the following sources: iNOS (Santa Cruz Biotechnology), (3-actin (Cell Signaling Technology), Ikα: (Santa Cruz Biotechnology), tubulin (Cell Signaling Technology), and Pdx-1 (Cell Signaling Technology). The antibody recognizing Nkx6.1 has been described (34). Immunoblot images were quantified using Image Lab software (Bio-Rad).

832/13 cells [2] = experiment: Nitrite accumulation in culture media, Griess assay; details: IL-1β
Experimental: as §1

CCL2 = CCL2 secretion into media of 832/13 cells, ELISA
Experimental: (§2) 832/13 cells were grown in 12-well plates and treated as indicated. RPMI was supplemented with 0.3% BSA, and media were collected at the indicated time points. In addition, the cells were lysed using M-PER lysis reagent (Thermo Fisher Scientific) to quantify total intracellular protein content. CCL2 and CCL20 secretion into the media was measured by CCL2 Quantikine ELISA kit (R & D Systems, Minneapolis, Minn.) and CCL20 DuoSet ELISA kit (R & D Systems) according to the manufacturer's protocol. ELISA data were normalized to total protein to account for any differences in cell number between treatment groups.

CCL20 = CCL20 secretion into media of 832/13 cells, ELISA; details: glucose 2, 4, 8 or 16 mM; IL-1β 6 h
Experimental: as §2

832/13 cells [3] = experiment: Live cell calcium imaging, glucose-induced calcium response (Calcium Green)
Experimental: 832/13 cells were plated into six-well plates containing poly-d-lysine-coated coverslips (Neuvitro, Vancouver, Wash.). At 50% confluence, cells were treated for 18 h with one of four experimental groups: 1 ng/ml […] alone, 1 mM I-NMMA alone, IL-1β+ I-NMMA, or normal growth media. Immediately prior to imaging, cells were preloaded with Calcium Green 1 AM (CG, C3012; Life Technologies) by transferring coverslips to a solution of 10|×M CG in 20% Pluronic F127 in DMSO (Life Technologies) made up in carbogenated (95% 02-5% C02) normal Krebs. The recipe for normal Krebs solution was (in mM) 124 NaCl, 25 NaHC03, 2 glucose, 3 KC1, 2 CaCl2, 1.5 NaH2P04, and 1 MgS04-7H20, which corrected to pH 7.4 with HCl. After incubation in the CG solution for 30 min, coverslips were transferred to carbogenated normal Krebs at 29° C.
Coverslips were transferred to a recording chamber on a fixed stage Zeiss Axioskop2 microscope equipped with a Perkin Elmer Ultra-view/Yokogawa C10 spinning disk laser confocal illuminator. Cells were illuminated with the 488 nm laser; CG-calcium fluorescence signals were collected at 509 nm. Cells were visualized with a X40 water immersion objective. Images were collected with a Hammamatsu Ocra-ER charge-coupled device camera. The confocal system, including image collection, was controlled by Perkin-Elmer Improvision software.
Cells on coverslips were constantly perfused with normal Krebs solution at 29° C. at a rate of 3 ml/min. After 10 min, the perfusion solution was switched to one containing 12 mM glucose and proportionally less sodium chloride to maintain osmolality. The 12 mM glucose challenge was applied for 5 min, followed by a 5 min washout period. Images of CG-labeled cells were collected continuously during the challenge period at a rate of 20/min, with each frame taking 1 s. Images were collected as TIFF stacks and processed using Nikon Elements AR software. Individual cells in the field were designated as regions of interest (ROI), and their fluorescence signal over time was captured. Background fluorescence was subtracted from the fluorescence signal of individual ROIs. The relative changes in cytoplasmic calcium in the cells were expressed as changes in fluorescence [(AF/F) %], where F is the intensity of the baseline fluorescence signal before stimulation and AF is the difference between the peak fluorescence intensity and the baseline signal. Therefore, magnitude of response was normalized for each individual ROI.

[4] = pretreated 18 h with IL-1β alone, 12 mM glucose

In the case of “IL-1β: proinflammatory cytokine purchased from Thermo Fisher Scientific, used at 1 ng/ml”, the “decrease in reduction of the MTS dye” value (832/13 cells [1]) is reported as 38%, the “amount of Pdx-1 protein” value (Pdx-1) is reported as “unchanged” and the “increase in nitrite accrual” value (832/13 cells [2]; 6 h) is reported as 5.5 fold. For the same substance, the increase in nitrite (832/13 cells [2]; time not given, associated with 54% diminution in GSIS) was 13 fold, the “expression and secretion of CCL2 in response to IL-1β” value (CCL2; 832/13 cells, 1 ng/ml IL-1β) was “markedly elevated; also recorded: strongly induced” and the “time to chemokine secretion after cellular exposure” value (CCL2; IL-1β) was 3 to 6 h. For the same substance, the “IL-1β-induced secretion of CCL2 over a range of glucose concentrations” value (CCL2; glucose 2, 4, 8 or 16 mM, IL-1β 6 h) was “not different”, the “IL-1β-induced secretion of CCL20 over a range of glucose concentrations” value (CCL20) was “not different” and the “average response magnitude (change in fluorescence)” value (832/13 cells [3]; [4]) was 20%. For the same substance, the “cells responding to the glucose challenge” value (832/13 cells [3]; [4]) was 61% and the “reduction of responses relative to control group” value (832/13 cells [3]; pretreated with IL-1β alone) was 39%.
